The values that follow come from patent publication US20260347347A1, “2-AZA-AND 2-OXABICYCLO[2.1.1]HEXANE DERIVATIVES AS FACTOR XIIA ENZYME INHIBITORS” (KALVISTA PHARMACEUTICALS LIMITED, priority 2022, published 2026).

Structures are written as SMILES.

The target in this experiment is T1, Human Factor XIIa (Homo sapiens, UniProt P00748).
T1 construct: purchased Enzyme Research Laboratories
T1 sequence (P00748 373-615 limits assumed): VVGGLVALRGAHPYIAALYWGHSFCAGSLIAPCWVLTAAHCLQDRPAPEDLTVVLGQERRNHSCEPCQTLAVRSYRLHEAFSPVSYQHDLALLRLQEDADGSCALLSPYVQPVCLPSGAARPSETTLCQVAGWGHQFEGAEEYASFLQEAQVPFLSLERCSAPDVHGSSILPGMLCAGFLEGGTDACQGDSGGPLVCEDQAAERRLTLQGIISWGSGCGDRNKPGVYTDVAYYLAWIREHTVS
T1 sequence (P00748 20-372 partner limits assumed): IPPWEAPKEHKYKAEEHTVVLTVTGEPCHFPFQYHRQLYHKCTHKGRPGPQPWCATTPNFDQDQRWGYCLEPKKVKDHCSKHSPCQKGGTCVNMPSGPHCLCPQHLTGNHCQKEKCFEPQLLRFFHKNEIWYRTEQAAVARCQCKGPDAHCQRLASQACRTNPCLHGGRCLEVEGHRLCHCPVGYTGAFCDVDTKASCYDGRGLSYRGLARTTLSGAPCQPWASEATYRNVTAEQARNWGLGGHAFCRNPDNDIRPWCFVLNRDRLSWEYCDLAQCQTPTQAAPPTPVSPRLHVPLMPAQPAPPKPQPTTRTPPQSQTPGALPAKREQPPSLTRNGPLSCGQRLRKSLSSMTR
In words: Determination of FXIIa inhibition (in vitro IC50 assay, fluorogenic substrate H-DPro-Phe-Arg-AFC). The conditions noted are these: human Factor XIIa; fluorogenic substrate H-DPro-Phe-Arg-AFC at Km concentration; 5 min, 25 °C; class symbols; read-out: Human FXIIa IC50. In kind it is biochemical. The protocol:
In vitro inhibition of Factor XIIa was determined using an IC50 assay based on standard literature methods (see e.g Baeriswyl et al., ACS Chem. Biol., 2015, 10 (8) 1861; Bouckaert et al., European Journal of Medicinal Chemistry 110 (2016) 181). Human Factor XIIa (Enzyme Research Laboratories) was incubated at 25 °C with the fluorogenic substrate H-DPro-Phe-Arg-AFC (Peptide Protein Science) and various concentrations of the test compound. Protease activity was measured by monitoring the accumulation of liberated fluorescence from the substrate over 5 min at 25 °C. The linear rate of fluorescence increase per minute was expressed as percentage (%) activity. The Km for the cleavage of the substrate by FXIIa was determined by standard transformation of the Michaelis-Menten equation. The compound inhibitor assays were performed at substrate Km concentration. IC50 values were calculated as the concentration of inhibitor giving 50% inhibition (IC50) of the uninhibited enzyme activity (100%).
`Cc1cc(OCC23CN(C(=O)CC45CCC(CC4)C5)C(CNc4cccc5c(N)nccc45)(C2)C3)cc(=O)n1C` [Example 22, 4-((1-(((1-aminoisoquinolin-5-yl)amino)methyl)-2-(2-(bicyclo[2.2.1]heptan-1-yl)acetyl)-2-azabicyclo[2.1.1]hexan-4-yl)methoxy)-1,6-dimethylpyridin-2(1H)-one]: the IC50 (commonly the concentration that inhibits the measured activity by half) is 10 to 100 nM.
Regarding `Cc1cc(OCC23CN(C(=O)CC4CCC(F)(F)CC4)C(CNc4cccc5c(N)nccc45)(C2)C3)cc(=O)n1C` [Example 23, 4-((1-(((1-aminoisoquinolin-5-yl)amino)methyl)-2-(2-(4,4-difluorocyclohexyl)acetyl)-2-azabicyclo[2.1.1]hexan-4-yl)methoxy)-1,6-dimethylpyridin-2(1H)-one], the IC50 lay within 10 to 100 nM.
For `Cc1cc(OCC23CN(C(=O)CC45CC(C4)C5)C(CNc4cccc5c(N)nccc45)(C2)C3)cc(=O)n1C` [Example 26, 4-((1-(((1-aminoisoquinolin-5-yl)amino)methyl)-2-(2-(bicyclo[1.1.1]pentan-1-yl)acetyl)-2-azabicyclo[2.1.1]hexan-4-yl)methoxy)-1,6-dimethylpyridin-2(1H)-one], the IC50 was 10 to 100 nM.
In the case of `CC(C(=O)N1CC2(COc3ccn(C)c(=O)c3)CC1(CNc1cccc3c(N)nccc13)C2)c1ccc2c(c1)CCO2` (stereo not drawn) [Example 27, 4-((1-(((1-aminoisoquinolin-5-yl)amino)methyl)-2-(2-(2,3-dihydrobenzofuran-5-yl)propanoyl)-2-azabicyclo[2.1.1]hexan-4-yl)methoxy)-1-methylpyridin-2(1H)-one], the half-maximal inhibitory concentration (IC50) was in the range of 10 to 100 nM.
For `Cc1cc(OCC23CN(C(=O)C(C)c4ccc5c(c4)CCO5)C(CNc4cccc5c(N)nccc45)(C2)C3)cc(=O)n1C` (stereo not drawn) [Example 28, 4-((1-(((1-aminoisoquinolin-5-yl)amino)methyl)-2-(2-(2,3-dihydrobenzofuran-5-yl)propanoyl)-2-azabicyclo[2.1.1]hexan-4-yl)methoxy)-1,6-dimethylpyridin-2(1H)-one], the IC50 is 10 to 100 nM.
With `CC(=O)NC(C)C(=O)N1CC2(COc3cc(C)n(C)c(=O)c3)CC1(CNc1cccc3c(N)nccc13)C2` (stereo not drawn) [Example 29, N-(1-(1-(((1-Aminoisoquinolin-5-yl)amino)methyl)-4-(((1,6-dimethyl-2-oxo-1,2-dihydropyridin-4-yl)oxy)methyl)-2-azabicyclo[2.1.1]hexan-2-yl)-1-oxopropan-2-yl)acetamide], the IC50 was 10 to 100 nM.
`Cn1ccc(OCC23CN(C(=O)N4CCOCC4)C(CNc4cccc5c(N)nccc45)(C2)C3)cc1=O` [Example 31, 4-((1-(((1-aminoisoquinolin-5-yl)amino)methyl)-2-(morpholine-4-carbonyl)-2-azabicyclo[2.1.1]hexan-4-yl)methoxy)-1-methylpyridin-2(1H)-one]: the IC50 lay within 10 to 100 nM.
As for `C[C@H](NC(=O)N1CC2(COc3ccn(C)c(=O)c3)CC1(CNc1cccc3c(N)nccc13)C2)c1ccccc1` [Example 32, (S)-1-(((1-aminoisoquinolin-5-yl)amino)methyl)-4-(((1-methyl-2-oxo-1,2-dihydropyridin-4-yl)oxy)methyl)-N-(1-phenylethyl)-2-azabicyclo[2.1.1]hexane-2-carboxamide], the IC50 was in the range of 10 to 100 nM.
To `C[C@@H](NC(=O)N1CC2(COc3ccn(C)c(=O)c3)CC1(CNc1cccc3c(N)nccc13)C2)c1ccccc1` [Example 33, (R)-1-(((1-aminoisoquinolin-5-yl)amino)methyl)-4-(((1-methyl-2-oxo-1,2-dihydropyridin-4-yl)oxy)methyl)-N-(1-phenylethyl)-2-azabicyclo[2.1.1]hexane-2-carboxamide] belongs 10 to 100 nM.
With `Cn1ccc(OCC23CN(C(=O)N4CCc5ccccc54)C(CNc4cccc5c(N)nccc45)(C2)C3)cc1=O` [Example 34, 4-((1-(((1-aminoisoquinolin-5-yl)amino)methyl)-2-(indoline-1-carbonyl)-2-azabicyclo[2.1.1]hexan-4-yl)methoxy)-1-methylpyridin-2(1H)-one], the IC50 was in the range of 10 to 100 nM.
Consider `Cn1ccc(OCC23CN(C(=O)N4CCOc5ccccc54)C(CNc4cccc5c(N)nccc45)(C2)C3)cc1=O` [Example 35, 4-((1-(((1-aminoisoquinolin-5-yl)amino)methyl)-2-(3,4-dihydro-2H-benzo[b][1,4]oxazine-4-carbonyl)-2-azabicyclo[2.1.1]hexan-4-yl)methoxy)-1-methylpyridin-2(1H)-one], for which the IC50 lay in the range of 10 to 100 nM.
In the case of `Cn1ccc(OCC23CN(C(=O)N4CCCc5ccccc54)C(CNc4cccc5c(N)nccc45)(C2)C3)cc1=O` [Example 36, 4-((1-(((1-aminoisoquinolin-5-yl)amino)methyl)-2-(1,2,3,4-tetrahydroquinoline-1-carbonyl)-2-azabicyclo[2.1.1]hexan-4-yl)methoxy)-1-methylpyridin-2(1H)-one], the IC50 is 100 to 300 nM.
To `Cn1ccc(OCC23CN(C(=O)N4CCc5ccccc5C4)C(CNc4cccc5c(N)nccc45)(C2)C3)cc1=O` [Example 37, 4-((1-(((1-aminoisoquinolin-5-yl)amino)methyl)-2-(1,2,3,4-tetrahydroisoquinoline-2-carbonyl)-2-azabicyclo[2.1.1]hexan-4-yl)methoxy)-1-methylpyridin-2(1H)-one] belongs 100 to 300 nM; to `Cn1ccc(OCC23CN(C(=O)Nc4ccc5c(c4)CCO5)C(CNc4cccc5c(N)nccc45)(C2)C3)cc1=O` [Example 38, 1-(((1-aminoisoquinolin-5-yl)amino)methyl)-N-(2,3-dihydrobenzofuran-5-yl)-4-(((1-methyl-2-oxo-1,2-dihydropyridin-4-yl)oxy)methyl)-2-azabicyclo[2.1.1]hexane-2-carboxamide], 1 to 10 nM; to `COc1ccc2c(c1)CCCN2C(=O)N1CC2(COc3ccn(C)c(=O)c3)CC1(CNc1cccc3c(N)nccc13)C2` [Example 39, 4-((1-(((1-aminoisoquinolin-5-yl)amino)methyl)-2-(6-methoxy-1,2,3,4-tetrahydroquinoline-1-carbonyl)-2-azabicyclo[2.1.1]hexan-4-yl)methoxy)-1-methylpyridin-2(1H)-one], 100 to 300 nM.
Regarding `Cc1cc(OCC23CN(C(=O)N(C)[C@@H]4CCOC4)C(CNc4cccc5c(N)nccc45)(C2)C3)cc(=O)n1C` [Example 40, (R)-1-(((1-aminoisoquinolin-5-yl)amino)methyl)-4-(((1,6-dimethyl-2-oxo-1,2-dihydropyridin-4-yl)oxy)methyl)-N-methyl-N-(tetrahydrofuran-3-yl)-2-azabicyclo [2.1.1]hexane-2-carboxamide], the IC50 was 10 to 100 nM.
Regarding `Cc1cc(OCC23CN(C(=O)N(C)[C@H]4CCOC4)C(CNc4cccc5c(N)nccc45)(C2)C3)cc(=O)n1C` [Example 41, (S)-1-(((1-aminoisoquinolin-5-yl)amino)methyl)-4-(((1,6-dimethyl-2-oxo-1,2-dihydropyridin-4-yl)oxy)methyl)-N-methyl-N-(tetrahydrofuran-3-yl)-2-azabicyclo[2.1.1]hexane-2-carboxamide], the IC50 was 10 to 100 nM.
As for `C[C@@H](c1ccccc1)N(C)C(=O)N1CC2(COc3ccn(C)c(=O)c3)CC1(CNc1cccc3c(N)nccc13)C2` [Example 42, (S)-1-(((1-aminoisoquinolin-5-yl)amino)methyl)-N-methyl-4-(((1-methyl-2-oxo-1,2-dihydropyridin-4-yl)oxy)methyl)-N-(1-phenylethyl)-2-azabicyclo[2.1.1]hexane-2-carboxamide], the concentration for half-maximal inhibition (IC50) lay in the range of 10 to 100 nM.
As to `C[C@H](c1ccccc1)N(C)C(=O)N1CC2(COc3ccn(C)c(=O)c3)CC1(CNc1cccc3c(N)nccc13)C2` [Example 43, (R)-1-(((1-aminoisoquinolin-5-yl)amino)methyl)-N-methyl-4-(((1-methyl-2-oxo-1,2-dihydropyridin-4-yl)oxy)methyl)-N-(1-phenylethyl)-2-azabicyclo[2.1.1]hexane-2-carboxamide], the IC50 fell in the range of 1 to 10 nM.
As to `Cn1ccc(OCC23CN(C(=O)N4CC[C@@H](c5ccccc5)C4)C(CNc4cccc5c(N)nccc45)(C2)C3)cc1=O` [Example 44, (S)-4-((1-(((1-aminoisoquinolin-5-yl)amino)methyl)-2-(3-phenylpyrrolidine-1-carbonyl)-2-azabicyclo[2.1.1]hexan-4-yl)methoxy)-1-methylpyridin-2(1H)-one], the IC50 is 1 to 10 nM.
As for `Cc1cc(OCC23CN(C(=O)N4CC[C@@H](c5ccccc5)C4)C(CNc4cccc5c(N)nccc45)(C2)C3)cc(=O)n1C` [Example 45, (S)-4-((1-(((1-aminoisoquinolin-5-yl)amino)methyl)-2-(3-phenylpyrrolidine-1-carbonyl)-2-azabicyclo[2.1.1]hexan-4-yl)methoxy)-1,6-dimethylpyridin-2(1H)-one], the IC50 was 1 to 10 nM.
